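GI50 marks 50% less growth. TGI denotes the concentration required for complete inhibition of growth.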
Legend:
Assay in all cases: NCI tumour cell line growth inhibition, 384-well format
SW-620 colon = tested on: SW-620 colon
TK-10 renal = tested on: TK-10 renal
IGROV1 ovarian = tested on: IGROV1 ovarian
DU-145 prostate = tested on: DU-145 prostate
SN12C renal = tested on: SN12C renal
HOP-92 NSCLC = tested on: HOP-92 NSCLC
K-562 leukemia = tested on: K-562 leukemia
HL-60(TB) leukemia = tested on: HL-60(TB) leukemia
ACHN renal = tested on: ACHN renal
OVCAR-4 ovarian = tested on: OVCAR-4 ovarian
786-0 renal = tested on: 786-0 renal
MALME-3M melanoma = tested on: MALME-3M melanoma
HCT-116 colon = tested on: HCT-116 colon
SF-295 CNS = tested on: SF-295 CNS
MDA-MB-468 breast = tested on: MDA-MB-468 breast
SNB-75 CNS = tested on: SNB-75 CNS
SK-OV-3 ovarian = tested on: SK-OV-3 ovarian
NCI-H522 lung = tested on: NCI-H522 lung
NCI-H226 lung = tested on: NCI-H226 lung
CAKI-1 renal = tested on: CAKI-1 renal
SK-MEL-2 melanoma = tested on: SK-MEL-2 melanoma
CCRF-CEM leukemia = tested on: CCRF-CEM leukemia
COLO 205 colon = tested on: COLO 205 colon
A549 NSCLC = tested on: A549 NSCLC
SK-MEL-5 melanoma = tested on: SK-MEL-5 melanoma
SK-MEL-28 melanoma = tested on: SK-MEL-28 melanoma
T-47D breast = tested on: T-47D breast
UO-31 renal = tested on: UO-31 renal
OVCAR-5 ovarian = tested on: OVCAR-5 ovarian
RPMI-8226 leukemia = tested on: RPMI-8226 leukemia
HOP-62 NSCLC = tested on: HOP-62 NSCLC
NCI/ADR-RES ovarian = tested on: NCI/ADR-RES ovarian
U251 glioblastoma = tested on: U251 glioblastoma
MDA-MB-231 breast = tested on: MDA-MB-231 breast
MCF7 breast = tested on: MCF7 breast
HCC-2998 colon = tested on: HCC-2998 colon
KM12 colon = tested on: KM12 colon
BT-549 breast = tested on: BT-549 breast
MDA-MB-435 melanoma = tested on: MDA-MB-435 melanoma
OVCAR-3 ovarian = tested on: OVCAR-3 ovarian
UACC-62 melanoma = tested on: UACC-62 melanoma
HCT-15 colon = tested on: HCT-15 colon
HS 578T breast = tested on: HS 578T breast
OVCAR-8 ovarian = tested on: OVCAR-8 ovarian
RXF 393 renal = tested on: RXF 393 renal
SF-268 CNS = tested on: SF-268 CNS
NCI-H23 lung = tested on: NCI-H23 lung

Compound: COc1nn(C)cc1Nc1nccc(-c2c[nH]c3c(NC(=O)[C@@H](C)N4CCN(C)CC4)cccc23)n1
- GI50 (SW-620 colon): 21 µM
- TGI (SW-620 colon): 40.3 µM
- GI50 (TK-10 renal): 20.5 µM
- TGI (TK-10 renal): > 60 µM
- GI50 (IGROV1 ovarian): 18.8 µM
- TGI (IGROV1 ovarian): 52.4 µM
- GI50 (DU-145 prostate): 40.4 µM
- TGI (DU-145 prostate): > 100 µM
- GI50 (SN12C renal): 26 µM
- TGI (SN12C renal): > 100 µM
- GI50 (HOP-92 NSCLC): 20.4 µM
- TGI (HOP-92 NSCLC): 47.6 µM
- GI50 (K-562 leukemia): 10.5 µM
- TGI (K-562 leukemia): 26.5 µM
- GI50 (HL-60(TB) leukemia): 11.8 µM
- TGI (HL-60(TB) leukemia): 24.1 µM
- GI50 (ACHN renal): 21.3 µM
- TGI (ACHN renal): > 67.2 µM
- GI50 (OVCAR-4 ovarian): 30.2 µM
- TGI (OVCAR-4 ovarian): > 62.1 µM
- GI50 ([…]-0 renal): 18.4 µM
- TGI (786-0 renal): 41.5 µM
- GI50 (MALME-3M melanoma): 14.9 µM
- TGI (MALME-3M melanoma): 29.2 µM
- GI50 (HCT-116 colon): 19.8 µM
- TGI (HCT-116 colon): 43.2 µM
- GI50 (SF-295 CNS): 28.1 µM
- TGI (SF-295 CNS): > 61.6 µM
- GI50 (MDA-MB-468 breast): 15.1 µM
- TGI (MDA-MB-468 breast): 30.9 µM
- GI50 (SNB-75 CNS): 17.7 µM
- TGI (SNB-75 CNS): 32 µM
- GI50 (SK-OV-3 ovarian): 9.78 µM
- TGI (SK-OV-3 ovarian): 31.6 µM
- GI50 (NCI-H522 lung): 10.2 µM
- TGI (NCI-H522 lung): 26.5 µM
- GI50 (NCI-H226 lung): 9.15 µM
- TGI (NCI-H226 lung): 31.6 µM
- GI50 (CAKI-1 renal): 11.7 µM
- TGI (CAKI-1 renal): 28.6 µM
- GI50 (SK-MEL-2 melanoma): 14.7 µM
- TGI (SK-MEL-2 melanoma): 29.5 µM
- GI50 (CCRF-CEM leukemia): 15.9 µM
- TGI (CCRF-CEM leukemia): 29.4 µM
- GI50 (COLO 205 colon): 20.5 µM
- TGI (COLO 205 colon): 36.9 µM
- GI50 (A549 NSCLC): 25.7 µM
- TGI (A549 NSCLC): > 59.9 µM
- GI50 (SK-MEL-5 melanoma): 14.5 µM
- TGI (SK-MEL-5 melanoma): 28.3 µM
- GI50 (SK-MEL-28 melanoma): 26.9 µM
- TGI (SK-MEL-28 melanoma): > 66.1 µM
- GI50 (T-47D breast): 29 µM
- TGI (T-47D breast): > 89.4 µM
- GI50 (UO-31 renal): 17.3 µM
- TGI (UO-31 renal): 32.5 µM
- GI50 (OVCAR-5 ovarian): 25.1 µM
- TGI (OVCAR-5 ovarian): 65.2 µM
- GI50 (RPMI-8226 leukemia): 11.2 µM
- TGI (RPMI-8226 leukemia): 26.6 µM
- GI50 (HOP-62 NSCLC): 29.7 µM
- TGI (HOP-62 NSCLC): > 89.1 µM
- GI50 (NCI/ADR-RES ovarian): 45.4 µM
- TGI (NCI/ADR-RES ovarian): > 100 µM
- GI50 (U251 glioblastoma): 27.8 µM
- TGI (U251 glioblastoma): 75.8 µM
- GI50 (MDA-MB-231 breast): 28 µM
- TGI (MDA-MB-231 breast): > 95.5 µM
- GI50 (MCF7 breast): 18 µM
- TGI (MCF7 breast): > 71.9 µM
- GI50 (HCC-2998 colon): 19.5 µM
- TGI (HCC-2998 colon): 37.3 µM
- GI50 (KM12 colon): 20.1 µM
- TGI (KM12 colon): 61.2 µM
- GI50 (BT-549 breast): 17.2 µM
- TGI (BT-549 breast): 32.4 µM
- GI50 (MDA-MB-435 melanoma): 13.5 µM
- TGI (MDA-MB-435 melanoma): 30.8 µM
- GI50 (OVCAR-3 ovarian): 18.7 µM
- TGI (OVCAR-3 ovarian): 51.2 µM
- GI50 (UACC-62 melanoma): 17.7 µM
- TGI (UACC-62 melanoma): 38.2 µM
- GI50 (HCT-15 colon): 18.7 µM
- TGI (HCT-15 colon): 51.7 µM
- GI50 (HS 578T breast): 13 µM
- TGI (HS 578T breast): 25.9 µM
- GI50 (OVCAR-8 ovarian): 45.1 µM
- TGI (OVCAR-8 ovarian): > 76.3 µM
- GI50 (RXF 393 renal): 14.9 µM
- TGI (RXF 393 renal): 30.6 µM
- GI50 (SF-268 CNS): 18.4 µM
- TGI (SF-268 CNS): 37 µM
- GI50 (NCI-H23 lung): 17.4 µM
- TGI (NCI-H23 lung): 42.3 µM

From PubChem BioAssay (NCI)
